Patent US20080176862A1, “New Compounds 617” (ASTRAZENECA AB, priority 2006, published 2008)
Counter-ions that a name gives are not always drawn.

Target: T1, human β-Secretase (soluble part, AA1-AA460; sBACE-Fc) (Homo sapiens, UniProt P56817)
T1 construct: The soluble part of the human β-Secretase (AA1-AA460) was cloned into the ASP2-Fc10-1-IRES-GFP-neoK mammalian expression vector; made in house
Experiment: TR-FRET assay
Assay type: biochemical
Details: substrate (Europium)CEVNLDAEFK(Qsy7) 100 nM, pH 4.5, 15 min at RT; for IC50: read-out: IC50 (nM) in TR-FRET assay
Method: The enzyme used in the IGEN Cleavage-, Fluorescent-, TR-FRET- and BiaCore assays is described as follows:
The soluble part of the human β-Secretase (AA1-AA460) was cloned into the ASP2-Fc10-1-IRES-GFP-neoK mammalian expression vector. The gene was fused to the Fc domain of IgG1 (affinity tag) and stably cloned into HEK 293 cells. Purified sBACE-Fc is stored in Tris buffer, pH 9.2 and has a purity of 95%.
Enzyme was diluted to 6 μg/mL and the substrate (Europium)[…](Qsy7) to 200 nM in reaction buffer (NaAcetate, chaps, triton x-100, EDTA pH 4.5). Compounds were diluted to the desired concentration in dimethyl sulfoxide (final dimethyl sulfoxide concentration in assay is 5%). […] Enzyme (9 μL) and 1 μL of compound in dimethyl sulfoxide was added to the plate, mixed and pre-incubated for 10 min. Substrate (10 μL) was added and the reaction proceeded in the dark for 15 min at RT. The reaction was stopped with the addition of 7 μL NaAcetate, pH 9. The fluorescence of the product was measured on a Victor II plate reader with an excitation wavelength of 340 nm and an emission wavelength of 615 nm. […] The dimethyl sulfoxide control defined the 100% activity level and 0% activity was defined by exclusion of the enzyme (using reaction buffer instead).

T1 sequence (P56817 22-460): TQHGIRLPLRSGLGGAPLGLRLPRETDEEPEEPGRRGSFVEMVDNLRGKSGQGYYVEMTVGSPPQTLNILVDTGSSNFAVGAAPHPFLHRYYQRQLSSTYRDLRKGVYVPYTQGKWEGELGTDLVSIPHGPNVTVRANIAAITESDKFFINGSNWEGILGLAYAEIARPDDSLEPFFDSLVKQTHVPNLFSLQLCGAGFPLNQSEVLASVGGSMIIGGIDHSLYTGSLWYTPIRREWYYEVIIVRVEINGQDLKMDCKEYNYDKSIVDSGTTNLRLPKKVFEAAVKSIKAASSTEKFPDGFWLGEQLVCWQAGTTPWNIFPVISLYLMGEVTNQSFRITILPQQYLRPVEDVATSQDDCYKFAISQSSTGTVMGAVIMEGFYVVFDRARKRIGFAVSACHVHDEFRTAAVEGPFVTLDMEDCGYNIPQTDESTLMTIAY

Row | SMILES | IC50 [nM] | IC50 (nM) in TR-FRET assay
1 | COc1cccc(-c2cc(C3(c4cccc(OS(C)(=O)=O)c4)N=C(N)N(C)C3=O)ccc2F)c1 (stereo not shown) [Example 93, 3-[2-Amino-4-(6-fluoro-3′-methoxybiphenyl-3-yl)-1-methyl-5-oxo-4,5-dihydro-1H-imidazol-4-yl]phenyl methanesulfonate] | 146 | 
2 | COc1cc(OS(C)(=O)=O)cc(-c2cc(C3(c4ccc(OC(F)F)cc4)N=C(N)N(C)C3=O)ccc2F)c1 (stereo not shown) [Example 69, 5′-{2-Amino-4-[4-(difluoromethoxy)phenyl]-1-methyl-5-oxo-4,5-dihydro-1H-imidazol-4-yl}-2′-fluoro-5-methoxybiphenyl-3-yl methanesulfonate hydrochloride] | 23 | 
3 | COc1cc(OS(C)(=O)=O)cc(-c2cccc(C3(c4ccc(OC)c(C(F)(F)F)c4)N=C(N)N(C)C3=O)c2)c1 (stereo not shown) [Example 60, 3′-{2-Amino-4-[4-methoxy-3-(trifluoromethyl)phenyl]-1-methyl-5-oxo-4,5-dihydro-1H-imidazol-4-yl}-5-methoxybiphenyl-3-yl methanesulfonate] | 25 | 
4 | Cc1nn(C)c(Cl)c1S(=O)(=O)Oc1cccc(C2(c3ccc(F)c(Br)c3)N=C(N)N(C)C2=O)c1 (stereo not shown) [Example 230, 3-[2-Amino-4-(3-bromo-4-fluorophenyl)-1-methyl-5-oxo-4,5-dihydro-1H-imidazol-4-yl]phenyl 5-chloro-1,3-dimethyl-1H-pyrazole-4-sulfonate] | 129 | 
5 | CN1C(=O)C(c2cccc(OS(C)(=O)=O)c2)(c2ccc(F)c(-c3cc(Cl)cnc3F)c2)N=C1N (stereo not shown) [Example 86, 3-{2-Amino-4-[3-(5-chloro-2-fluoropyridin-3-yl)-4-fluorophenyl]-1-methyl-5-oxo-4,5-dihydro-1H-imidazol-4-yl}phenyl methanesulfonate] | 292 | 
6 | CN1C(=O)C(c2ccc(F)c(-c3cc(Cl)cc(OS(C)(=O)=O)c3)c2)(C2CCOCC2)N=C1N (stereo not shown) [Example 193, 5′-[2-Amino-1-methyl-5-oxo-4-(tetrahydro-2H-pyran-4-yl)-4,5-dihydro-1H-imidazol-4-yl]-5-chloro-2′-fluorobiphenyl-3-yl methanesulfonate hydrochloride] | 1180 | 
7 | CN1C(=O)C(c2cccc(OS(=O)(=O)c3c(Cl)nc4sccn34)c2)(c2ccc(F)c(Br)c2)N=C1N (stereo not shown) [Example 233, 3-[2-Amino-4-(3-bromo-4-fluorophenyl)-1-methyl-5-oxo-4,5-dihydro-1H-imidazol-4-yl]phenyl 6-chloroimidazo[2,1-b][1,3]thiazole-5-sulfonate] | 321 | 
8 | CN1C(=O)C(c2cccc(-c3cc(Cl)cc(OS(C)(=O)=O)c3)c2)(c2ccnc(Cl)c2)N=C1N (stereo not shown) [Example 311, 3′-(2-Amino-4-(2-chloropyridin-4-yl)-1-methyl-5-oxo-4,5-dihydro-1H-imidazol-4-yl)-5-chlorobiphenyl-3-yl methanesulfonate hydrochloride] | 24 | 
9 | COc1cc(OS(C)(=O)=O)cc(-c2cc(C3(C4CCOCC4)N=C(N)N(C)C3=O)ccc2F)c1 (stereo not shown) [Example 192, 5′-[2-Amino-1-methyl-5-oxo-4-(tetrahydro-2H-pyran-4-yl)-4,5-dihydro-1H-imidazol-4-yl]-2′-fluoro-5-methoxybiphenyl-3-yl methanesulfonate hydrochloride] | 1260 | 
10 | COc1cccc(-c2ccnc(C3(c4ccc(OS(=O)(=O)C(F)(F)F)cc4)N=C(N)N(C)C3=O)c2)c1 (stereo not shown) [Example 298, 4-{2-Amino-4-[4-(3-methoxyphenyl)pyridin-2-yl]-1-methyl-5-oxo-4,5-dihydro-1H-imidazol-4-yl}phenyl trifluoromethanesulfonate 0.5 acetate] | 874 | 
11 | COc1ccc(C2(c3cccc(-c4cc(OC)cc(OS(C)(=O)=O)c4)c3)N=C(N)N(C)C2=O)cc1 (stereo not shown) [Example 57, 3′-[2-Amino-4-(4-methoxyphenyl)-1-methyl-5-oxo-4,5-dihydro-1H-imidazol-4-yl]-5-methoxybiphenyl-3-yl methanesulfonate] | 34 | 

Other lines, results leading:

Row | IC50 [nM] | IC50 (nM) in TR-FRET assay | SMILES
12 | 46 |  | COc1ccc(C#N)c(-c2cc(C3(c4ccc(OS(C)(=O)=O)cc4)N=C(N)N(C)C3=O)ccc2F)c1 (stereo not shown) [Example 167, 4-[2-Amino-4-(2′-cyano-6-fluoro-5′-methoxybiphenyl-3-yl)-1-methyl-5-oxo-4,5-dihydro-1H-imidazol-4-yl]phenyl methanesulfonate]
13 | 159 | inactive | COc1cc(OS(C)(=O)=O)cc(-c2cc(C3(c4ccccc4)N=C(N)N(C)C3=O)ccc2F)c1 (stereo not shown) [Example 84, 5′-(2-Amino-1-methyl-5-oxo-4-phenyl-4,5-dihydro-1H-imidazol-4-yl)-2′-fluoro-5-methoxybiphenyl-3-yl methanesulfonate]
14 | 1650 |  | CN1C(=O)C(c2ccc(OS(C)(=O)=O)cc2)(c2cncc(-c3cccnc3F)c2)N=C1N (stereo not shown) [Example 22, 4-[2-amino-4-(2′-fluoro-3,3′-bipyridin-5-yl)-1-methyl-5-oxo-4,5-dihydro-1H-imidazol-4-yl]phenyl methanesulfonate 0.5 acetate]
15 | 472 |  | CN1C(=O)C(c2cccc(OS(C)(=O)=O)c2)(c2ccc(F)c(-c3cncnc3)c2)N=C1N (stereo not shown) [Example 94, 3-[2-Amino-4-(4-fluoro-3-pyrimidin-5-ylphenyl)-1-methyl-5-oxo-4,5-dihydro-1H-imidazol-4-yl]phenyl methanesulfonate]
16 | 115 |  | COc1ccc(C(C)=O)c(-c2cc(C3(c4ccc(OS(C)(=O)=O)cc4)N=C(N)N(C)C3=O)ccc2F)c1 (stereo not shown) [Example 289, 4-[4-(2′-Acetyl-6-fluoro-5′-methoxybiphenyl-3-yl)-2-amino-1-methyl-5-oxo-4,5-dihydro-1H-imidazol-4-yl]phenyl methanesulfonate]
17 | 19 |  | CN1C(=O)C(c2ccc(OS(=O)(=O)c3ccccc3)cc2)(c2ccc(F)c(-c3cncnc3)c2)N=C1N (stereo not shown) [Example 185, 4-[2-Amino-4-(4-fluoro-3-pyrimidin-5-ylphenyl)-1-methyl-5-oxo-4,5-dihydro-1H-imidazol-4-yl]phenyl benzenesulfonate hydrochloride]
18 | 214 |  | CN1C(=O)C(c2ccc(OS(=O)(=O)C(F)(F)F)cc2)(c2ccc(F)c(-c3cnccn3)c2)N=C1N (stereo not shown) [Example 143, 4-[2-Amino-4-(4-fluoro-3-pyrazin-2-ylphenyl)-1-methyl-5-oxo-4,5-dihydro-1H-imidazol-4-yl]phenyl trifluoromethanesulfonate 0.5 acetate]
19 | 23 |  | COc1ccc(S(=O)(=O)Oc2ccc(C3(c4ccc(F)c(-c5cncnc5)c4)N=C(N)N(C)C3=O)cc2)cc1 (stereo not shown) [Example 279, 4-[2-amino-4-(4-fluoro-3-pyrimidin-5-ylphenyl)-1-methyl-5-oxo-4,5-dihydro-1H-imidazol-4-yl]phenyl 4-methoxybenzenesulfonate]
20 | 1910 |  | COc1ccc(F)c(-c2cncc(C3(c4ccc(OS(C)(=O)=O)cc4)N=C(N)N(C)C3=O)c2)c1 (stereo not shown) [Example 21, 4-{2-Amino-4-[5-(2-fluoro-5-methoxyphenyl)pyridin-3-yl]-1-methyl-5-oxo-4,5-dihydro-1H-imidazol-4-yl}phenyl methanesulfonate 0.5 acetate]
21 | 53 |  | COc1ccnc(-c2cc(C3(c4ccc(OS(C)(=O)=O)cc4)N=C(N)N(C)C3=O)ccc2F)c1 (stereo not shown) [Example 301, 4-{2-Amino-4-[4-fluoro-3-(4-methoxypyridin-2-yl)phenyl]-1-methyl-5-oxo-4,5-dihydro-1H-imidazol-4-yl}phenyl methanesulfonate 0.75 acetate]
